The subject of assay [1] is a-type yeast cell. Description: GFP expression of yeast cells arrayed in deep rectangular microwells, α-factor introduced after arraying and cleaning (Embodiment 2). The format is cell-based, Saccharomyces cerevisiae. The following applies: FIG. 15. The text has this:
(§1) For example, to obtain information with regard to a mating of the yeast cell, a pheromone, e.g., so-called α-factor, may be injected into the fluidic channel as the analysis reagent. If an a-type yeast cell is used as the cell, it is preferable that a pheromone of which a sequence is TRP-HIS-TRP-LEU-GLN-LEU-LYS-PRO-GLY-GLN-PRO-MET-TYR, is used as α-factor. In a subsequent operation, when analyzing responses, it is possible to obtain information with regard to whether or not a protein related to the mating is created in a corresponding cell, and the amount of the protein.
(§2) For instance, in the case where the yeast cell is treated with α-factor, it is possible to observe whether or not a protein related to the mating is created and the amount of the protein through the expression intensity of a green fluorescent protein (GFP) with a time. Moreover, in the case where the yeast cell is treated with KCl, it is possible to find out the creation amount of corresponding proteins through a red fluorescent protein (RFP), and also analyze the response of the corresponding yeast cell upon the external stress.
An a-type yeast cell solution using YPD medium was introduced into a fluidic channel. The introduced cell solution was filled into the fluidic channel through a capillary flow. After that, the inlet was sealed with a tape so that the cell solution was evaporated through an outlet. Accordingly, a receding meniscus was generated, thereby allowing the cells to be arrayed in the well structures at a single-cell level.
Afterwards, a cleaning solution containing amino acid, nitrogen, glucose, etc was introduced through the capillary flow caused by a surface tension, residual cells remaining at a side of the inlet were cleaned. At this time, a tissue paper was placed in the outlet to absorb and remove the residual cells and the cleaning solution.
After the residual cells are completely cleaned, […] was also introduced into the microfluidic channel by the capillary flow caused by the surface tension. […]

Assay [2] relates to a-type yeast cell. In words: GFP expression of yeast cells arrayed in shallow rectangular microwells, cell solution pre-treated with α-factor (Embodiment 1). The following applies: FIG. 14. The assay is classed as cell-based, Saccharomyces cerevisiae.
Description: as §1, §2
A mixed solution in which a-type yeast cell solution using yeast extract peptone dextrose (YPD) medium had been pre-treated with α-factor, e.g., pheromone having a sequence of TRP-HIS-TRP-LEU-GLN-LEU-LYS-PRO-GLY-GLN-PRO-MET-TYR, was introduced into a fluidic channel through an inlet. The introduced mixed solution filled the fluidic channel through a capillary flow.
After that, the inlet was sealed with a tape so that the mixed solution was evaporated through an outlet. Accordingly, a receding meniscus was generated, allowing the cells to be arrayed in the well structures at a single-cell level. At this time, it took about 10 minutes for the cells to be arrayed while the meniscus was receding.
FIG. 14 is a micrograph showing GFP expression of a yeast cell with respect to α-factor according as a time elapses using the fluidic channel. […]

Where [3] appears, read: 30 minutes after α-factor treatment.
[4] abbreviates: 60 minutes after α-factor treatment.
[5] abbreviates: 120 minutes after α-factor treatment (versus 60 minutes).

As for “TRP-HIS-TRP-LEU-GLN-LEU-LYS-PRO-GLY-GLN-PRO-MET-TYR (WHWLQLKPGQPMY; printed: TRP-HIS-TRP-LEU-GLN-LEU-LYS-PRO-GLY-GLN-PRO-MET-TYR) [α-factor, pheromone used as analysis reagent for mating response of a-type yeast cell]”, the GFP expression entry is reported as “cannot be observed yet” in assay [1] (setting [3]), “observed to be bright” in assay [1] (setting [4]), “cannot be observed yet” in assay [2] (setting [3]) and “observed to be bright” in assay [2] (setting [4]). Moreover, the GFP expression intensity entry in assay [1] (setting [5]) and in assay [2] (setting [5]) was “does not vary” each time.

The values above are taken from patent US20090093374A1, “METHOD OF ARRAYING CELLS AT SINGLE-CELL LEVEL INSIDE MI[…] AND METHOD OF ANALYSING CELLS USING THE SAME, AND CELL ANALYSIS CHIP USED FOR CARRYING OUT THE SAME” (priority 2007, published 2009).
